Experimental findings from patent publication US10508104B2, “6-hydroxy-5-(phenyl/heteroarylsulfonyl)pyrimidin-4(1H)-one as APJ agonists” (Bristol-Myers Squibb Company, priority 2016, dated 2019) are described below.

Structures are written as SMILES.

The target of this experiment is human APJ receptor (Homo sapiens (Human), UniProt P35414). The experiment can be described thus: Intracellular cAMP accumulation assay (APJ hcAMP, HTRF). The class given is cell-based. To be noted: HEK293 cells stably expressing human APJ receptor; inhibition of forskolin-mediated cAMP production; read-out: Human APJ cAMP EC50 Potency range. In short, it runs like this: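 HEK293 cells stably expressing human APJ, 5,000 per well, incubated 30 min at rt with compound, […] and 2 μM forskolin. cAMP measured by HTRF against a cAMP standard curve as inhibition of forskolin-driven production. EC50 from variable-slope sigmoidal fit.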
Chain of human APJ receptor (P35414 whole entry): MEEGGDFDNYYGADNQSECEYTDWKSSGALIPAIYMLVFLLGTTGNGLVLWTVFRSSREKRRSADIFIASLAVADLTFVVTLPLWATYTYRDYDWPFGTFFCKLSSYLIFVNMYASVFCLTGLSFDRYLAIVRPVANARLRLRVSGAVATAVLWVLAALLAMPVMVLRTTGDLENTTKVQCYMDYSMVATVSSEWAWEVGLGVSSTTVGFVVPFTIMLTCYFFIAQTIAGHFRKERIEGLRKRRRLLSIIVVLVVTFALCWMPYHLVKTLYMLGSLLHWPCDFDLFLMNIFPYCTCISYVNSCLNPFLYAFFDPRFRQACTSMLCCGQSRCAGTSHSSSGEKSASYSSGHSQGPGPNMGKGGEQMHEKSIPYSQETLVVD
As a reminder, the EC50 is the concentration that produces a half-maximal response. In the case of `CCCCc1nc(=O)c(S(=O)(=O)c2ccc(-c3ccc(F)cc3C(N)=O)cc2)c(O)n1[C@@H](CC)c1ccc(C#N)c(F)c1` [Example 514, 4′-({2-butyl-1-[(1S)-1-(4-cyano-3-fluorophenyl)propyl]-6-hydroxy-4-oxo-1,4-dihydropyrimidin-5-yl}sulfonyl)-4-fluoro-[1,1′-biphenyl]-2-carboxamide], the EC50 lay in the range of 0.01 to 10 nM.

Take `CCCCc1nc(=O)c(S(=O)(=O)c2ccc(-c3cccnc3C)cc2)c(O)n1[C@@H](CC)c1ccc(C#N)c(F)c1` [Example 515, 4-[(1S)-1-{2-butyl-6-hydroxy-5-[4-(2-methylpyridin-3-yl)benzenesulfonyl]-4-oxo-1,4-dihydropyrimidin-1-yl}propyl]-2-fluorobenzonitrile]: the EC50 fell in the range of 0.01 to 10 nM.

Regarding `CCCCc1nc(=O)c(S(=O)(=O)c2ccc(-c3ccncc3C)cc2)c(O)n1[C@@H](CC)c1ccc(C#N)c(F)c1` [Example 516, 4-[(1S)-1-{2-butyl-6-hydroxy-5-[4-(3-methylpyridin-4-yl)benzenesulfonyl]-4-oxo-1,4-dihydropyrimidin-1-yl}propyl]-2-fluorobenzonitrile], the half-maximal effective concentration (EC50) is 0.01 to 10 nM.

As to `CCCCc1nc(=O)c(S(=O)(=O)c2ccc(-c3ccnc(F)c3C)cc2)c(O)n1[C@@H](CC)c1ccc(C#N)c(F)c1` [Example 517, 4-[(1S)-1-{2-butyl-5-[4-(2-fluoro-3-methylpyridin-4-yl)benzenesulfonyl]-6-hydroxy-4-oxo-1,4-dihydropyrimidin-1-yl}propyl]-2-fluorobenzonitrile], the EC50 is 0.01 to 10 nM.

As to `CCCCc1nc(=O)c(S(=O)(=O)c2ccc(-c3cccn(C)c3=O)cc2)c(O)n1[C@@H](CC)c1ccc(C#N)c(F)c1` [Example 518, 4-[(1S)-1-{2-butyl-6-hydroxy-5-[4-(1-methyl-2-oxo-1,2-dihydropyridin-3-yl)benzenesulfonyl]-4-oxo-1,4-dihydropyrimidin-1-yl}propyl]-2-fluorobenzonitrile], the 50% effective concentration (EC50) lay in the range of 0.01 to 10 nM.

Regarding `CCCCc1nc(=O)c(S(=O)(=O)c2ccc(-c3ccc(F)nc3C)cc2)c(O)n1[C@@H](CC)c1ccc(C#N)c(F)c1` [Example 519, 4-[(1S)-1-{2-butyl-5-[4-(6-fluoro-2-methylpyridin-3-yl)benzenesulfonyl]-6-hydroxy-4-oxo-1,4-dihydropyrimidin-1-yl}propyl]-2-fluorobenzonitrile], the EC50 lay within 0.01 to 10 nM.

Regarding `CCCCc1nc(=O)c(S(=O)(=O)c2ccc(-c3ccccc3C(=O)NC)cc2)c(O)n1[C@@H](CC)c1ccc(C#N)c(F)c1` [Example 520, 4′-({2-butyl-1-[(1S)-1-(4-cyano-3-fluorophenyl)propyl]-6-hydroxy-4-oxo-1,4-dihydropyrimidin-5-yl}sulfonyl)-N-methyl-[1,1′-biphenyl]-2-carboxamide], the EC50 was in the range of 0.01 to 10 nM.

Take `CCCCc1nc(=O)c(S(=O)(=O)c2ccc(-c3ccccc3C(=O)N(C)C)cc2)c(O)n1[C@@H](CC)c1ccc(C#N)c(F)c1` [Example 521, 4′-({2-butyl-1-[(1S)-1-(4-cyano-3-fluorophenyl)propyl]-6-hydroxy-4-oxo-1,4-dihydropyrimidin-5-yl}sulfonyl)-N,N-dimethyl-[1,1′-biphenyl]-2-carboxamide]: the EC50 was in the range of 0.01 to 10 nM.

Regarding `CCCCc1nc(=O)c(S(=O)(=O)c2ccc(-c3ccccc3C(=O)NC3CC3)cc2)c(O)n1[C@@H](CC)c1cccc(C#N)c1` [Example 522, 4′-({2-butyl-1-[(1S)-1-(3-cyanophenyl)propyl]-6-hydroxy-4-oxo-1,4-dihydropyrimidin-5-yl}sulfonyl)-N-cyclopropyl-[1,1′-biphenyl]-2-carboxamide], the concentration for a half-maximal effect (EC50) is 0.01 to 10 nM.

In the case of `CCCCc1nc(=O)c(S(=O)(=O)c2ccc(-c3cccc(C(=O)NC)c3)cc2)c(O)n1[C@@H](CC)c1cccc(C#N)c1` [Example 523, 4′-({2-butyl-1-[(1S)-1-(3-cyanophenyl)propyl]-6-hydroxy-4-oxo-1,4-dihydropyrimidin-5-yl}sulfonyl)-N-methyl-[1,1′-biphenyl]-3-carboxamide], the EC50 was 0.01 to 10 nM.

On to `CCCCc1nc(=O)c(S(=O)(=O)c2ccc(-c3cccc4c3C(=O)NC4)cc2)c(O)n1[C@H](c1cccc(C#N)c1)C1CC1` [Example 524, 3-[(S)-{2-butyl-6-hydroxy-4-oxo-5-[4-(3-oxo-2,3-dihydro-1H-isoindol-4-yl)benzenesulfonyl]-1,4-dihydropyrimidin-1-yl}(cyclopropyl)methyl] benzonitrile], for which the concentration for a half-maximal effect (EC50) was 0.01 to 10 nM.

For `CCCCc1nc(=O)c(S(=O)(=O)c2ccc(-c3ccc(C(N)=O)cc3F)cc2)c(O)n1[C@@H](CC)c1cccc(C#N)c1` [Example 525, 4′-({2-butyl-1-[(1S)-1-(3-cyanophenyl)propyl]-6-hydroxy-4-oxo-1,4-dihydropyrimidin-5-yl}sulfonyl)-2-fluoro-[1,1′-biphenyl]-4-carboxamide], the concentration for a half-maximal effect (EC50) lay in the range of 0.01 to 10 nM.

For `CCCCc1nc(=O)c(S(=O)(=O)c2ccc(-c3ccnc(F)c3C)cc2)c(O)n1[C@@H](CC)c1ccnc(C#N)c1` [Example 526, 4-[(1S)-1-{2-butyl-5-[4-(2-fluoro-3-methylpyridin-4-yl)benzenesulfonyl]-6-hydroxy-4-oxo-1,4-dihydropyrimidin-1-yl}propyl]pyridine-2-carbonitrile], the concentration giving a half-maximal response (EC50) is 0.01 to 10 nM.

With `CCCCc1nc(=O)c(S(=O)(=O)c2ccc(-c3ccncc3C)cc2)c(O)n1[C@@H](CC)C1CCOCC1` [Example 527, 2-butyl-6-hydroxy-5-[4-(3-methylpyridin-4-yl)benzenesulfonyl]-1-[(1S)-1-(oxan-4-yl)propyl]-1,4-dihydropyrimidin-4-one], the 50% effective concentration (EC50) was 0.01 to 10 nM.

For `CCCCc1nc(=O)c(S(=O)(=O)c2ccc(-c3ccnc(F)c3C)cc2)c(O)n1[C@@H](CC)C1CCOCC1` [Example 528, 2-butyl-5-[4-(2-fluoro-3-methylpyridin-4-yl)benzenesulfonyl]-6-hydroxy-1-[(1S)-1-(oxan-4-yl)propyl]-1,4-dihydropyrimidin-4-one], the EC50 lay within 0.01 to 10 nM.

Consider `CCCCc1nc(=O)c(S(=O)(=O)c2ccc(-c3cccc4c3C(=O)NC4)cc2)c(O)n1[C@@H](CC)c1cccc(C#N)c1` [Example 529, 3-[(1S)-1-{2-butyl-6-hydroxy-4-oxo-5-[4-(3-oxo-2,3-dihydro-1H-isoindol-4-yl)benzenesulfonyl]-1,4-dihydropyrimidin-1-yl}propyl]benzonitrile], for which the EC50 fell in the range of 0.01 to 10 nM.

Regarding `CCCCc1nc(=O)c(S(=O)(=O)c2ccc(-c3ccccc3C(=O)NC)cc2)c(O)n1[C@H](c1cccc(C#N)c1)C1CC1` [Example 530, 4′-({2-butyl-1-[(S)-(3-cyanophenyl)(cyclopropyl)methyl]-6-hydroxy-4-oxo-1,4-dihydropyrimidin-5-yl}sulfonyl)-N-methyl-[1,1′-biphenyl]-2-carboxamide], the concentration giving a half-maximal response (EC50) is 0.01 to 10 nM.

As for `CCCCc1nc(=O)c(S(=O)(=O)c2ccc(-c3cccc(C(C)(C)O)c3)cc2)c(O)n1[C@@H](CC)c1cccc(C#N)c1` [Example 531, 3-[(1S)-1-(2-buty1-6-hydroxy-5-{[3′-(2-hydroxypropan-2-yl)-[1,1′-biphenyl]-4-yl]sulfonyl}-4-oxo-1,4-dihydropyrimidin-1-yl)propyl]benzonitrile], the EC50 fell in the range of 10 to 100 nM.

Regarding `CCCCc1nc(=O)c(S(=O)(=O)c2ccc(-c3ccc(C(C)(C)O)cc3)cc2)c(O)n1[C@@H](CC)c1cccc(C#N)c1` [Example 532, 3-[(1S)-1-(2-butyl-6-hydroxy-5-{[4′-(2-hydroxypropan-2-yl)-[1,1′-biphenyl]-4-yl]sulfonyl}-4-oxo-1,4-dihydropyrimidin-1-yl)propyl]benzonitrile], the 50% effective concentration (EC50) fell in the range of 10 to 100 nM.

In the case of `CCCCc1nc(=O)c(S(=O)(=O)c2ccc(-c3ccccc3C(=O)NC3CC3)cc2)c(O)n1[C@H](c1cccc(C#N)c1)C1CC1` [Example 533, 4′-({2-butyl-1-[(S)-(3-cyanophenyl)(cyclopropyl)methyl]-6-hydroxy-4-oxo-1,4-dihydropyrimidin-5-yl}sulfonyl)-N-cyclopropyl-[1,1′-biphenyl]-2-carboxamide], the EC50 is 0.01 to 10 nM.

For the compound `CCCCc1nc(=O)c(S(=O)(=O)c2ccc(-c3cccc(C(=O)NC4CC4)c3F)cc2)c(O)n1[C@@H](CC)c1cccc(C#N)c1` [Example 534, 4′-({2-butyl-1-[(1S)-1-(3-cyanophenyl)propyl]-6-hydroxy-4-oxo-1,4-dihydropyrimidin-5-yl}sulfonyl)-N-cyclopropyl-2-fluoro-[1,1′-biphenyl]-3-carboxamide], the 50% effective concentration (EC50) is 0.01 to 10 nM.

Take `CCCCc1nc(=O)c(S(=O)(=O)c2ccc(-c3cccc4c3CNC4=O)cc2)c(O)n1[C@@H](CC)c1cccc(C#N)c1` [Example 535, 3-[(1S)-1-{2-butyl-6-hydroxy-4-oxo-5-[4-(1-oxo-2,3-dihydro-1H-isoindol-4-yl)benzenesulfonyl]-1,4-dihydropyrimidin-1-yl}propyl]benzonitrile]: the EC50 is 0.01 to 10 nM.

Take `CCCCc1nc(=O)c(S(=O)(=O)c2ccc(-c3cc(F)ncc3C)cc2)c(O)n1[C@@H](CC)c1cccc(C#N)c1` [Example 536, 3-[(1S)-1-{2-butyl-5-[4-(2-fluoro-5-methylpyridin-4-yl)benzenesulfonyl]-6-hydroxy-4-oxo-1,4-dihydropyrimidin-1-yl}propyl]benzonitriIe]: the concentration for a half-maximal effect (EC50) lay in the range of 0.01 to 10 nM.

In the case of `CCCCc1nc(=O)c(S(=O)(=O)c2ccc(-c3ccnc(F)c3C)cc2)c(O)n1[C@H]1CCc2c(C#N)cccc21` [Example 537, (1S)-1-{2-butyl-5-[4-(2-fluoro-3-methylpyridin-4-yl)benzenesulfonyl]-6-hydroxy-4-oxo-1,4-dihydropyrimidin-1-yl}-2,3-dihydro-1H-indene-4-carbonitrile], the EC50 lay in the range of 0.01 to 10 nM.

With `CCCCc1nc(=O)c(S(=O)(=O)c2ccc(-c3cccc(F)c3C(N)=O)cc2)c(O)n1[C@@H](CC)c1cccc(C#N)c1` [Example 538, 4′-({2-butyl-1-[(1S)-1-(3-cyanophenyl)propyl]-6-hydroxy-4-oxo-1,4-dihydropyrimidin-5-yl}sulfonyl)-3-fluoro-[1,1′-biphenyl]-2-carboxamide], the EC50 lay in the range of 0.01 to 10 nM.
